Results: patent publication US20170067909A1, “ASSAY-READY RECOMBINANT CELLS TRANSIENTLY OVEREXPRESSING GENES ENCODING DRUG TRANSPORTER PROTEINS AND/OR DRUG METABOLIZING ENZYMES” (Corning Incorporated, priority 2012, published 2017)
Positions count from the first letter of the chain named.

Tests used:
OATP1B1*15 = biological target: T1, OATP1B1*15 (Homo sapiens, UniProt Q9Y6L6, N130D/V174A); test: OATP1B1 single nucleotide polymorphism panel uptake assay, OATP1B1*15 HEK-293 cells
T1 sequence (Q9Y6L6 1-691 N130D/V174A): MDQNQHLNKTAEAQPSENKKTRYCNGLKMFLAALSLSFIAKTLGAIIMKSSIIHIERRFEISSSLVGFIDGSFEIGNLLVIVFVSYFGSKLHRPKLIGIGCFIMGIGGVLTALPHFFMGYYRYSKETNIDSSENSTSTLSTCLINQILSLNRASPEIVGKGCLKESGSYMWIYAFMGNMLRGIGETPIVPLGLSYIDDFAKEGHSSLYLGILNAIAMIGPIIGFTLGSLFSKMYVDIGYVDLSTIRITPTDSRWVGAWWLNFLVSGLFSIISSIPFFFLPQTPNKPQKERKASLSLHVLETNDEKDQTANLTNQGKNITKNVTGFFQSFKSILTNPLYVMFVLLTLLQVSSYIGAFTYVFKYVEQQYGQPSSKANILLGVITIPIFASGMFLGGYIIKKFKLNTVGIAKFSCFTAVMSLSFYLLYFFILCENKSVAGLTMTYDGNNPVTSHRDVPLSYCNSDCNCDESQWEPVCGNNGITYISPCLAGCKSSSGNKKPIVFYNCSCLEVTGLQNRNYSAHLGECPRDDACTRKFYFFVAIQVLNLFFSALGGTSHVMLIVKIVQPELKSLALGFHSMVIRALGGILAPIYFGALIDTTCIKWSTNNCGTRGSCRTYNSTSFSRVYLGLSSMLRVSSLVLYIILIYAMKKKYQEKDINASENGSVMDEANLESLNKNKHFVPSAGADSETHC

[1] = biological target: T2, Organic Anion-Transporting Polypeptide 1B1 (Homo sapiens, UniProt Q9Y6L6); test: Suspension assay, vacuum manifold, Corning TransportoCells OATP1B1*1a; format: in vitro ADME; conditions: 5× substrate solution containing 25 μM, 10 minutes at 37° C., 600 k cells/well
T2 construct: host or cells: HEK293 cells, gene delivered by electroporation
T2 sequence (Q9Y6L6 1-691): T1 sequence (Q9Y6L6 1-691 N130D/V174A) with D130N, A174V
Description: In this experiment, a suspension assay for characterizing the activity of a drug transporter protein in cryopreserved, Corning® TransportoCells™ was developed. More specifically, the use of a centrifugation method versus a vacuum manifold for separating unreacted substrate in characterizing the activity of Organic Anion-Transporting Polypeptide 1B1 was investigated. Corning® TransportoCells™ transiently transfected with the gene OATP1B1*1a were obtained from Corning Life Sciences (Cat. No. 354859). In the Corning® TransportoCells™, the gene OATP1B1*1a was delivered into HEK293 cells via electroporation and the HEK293 cells were recovered and cryopreserved 1 hour post-electroporation. In order to obtain suitable expression of the Organic Anion-Transporting Polypeptide 1B1 encoded by OATP1B1*1a, the Corning® TransportoCells™ were thawed, cultured, and harvested.
The cells were cultured in T-175 Vented-Cap Culture Flasks with Poly-D-Lysine (hereinafter, “PDL”; available from Corning Life Sciences, Cat. No. 354539) with plating medium for 48 hours at 37° C. and 8% CO2. The plating medium is detailed in Table 16. After 24 hours, sodium butyrate (obtained from Sigma) was added to the cells to reach final 5 mM. After 48 hours, the cells were rinsed twice with Phosphate-Buffered Saline (hereinafter, “PBS”, obtained from Corning).
The cells were then harvested with 0.05% Trypsin (obtained from Sigma) and washed once with Hank's Balanced Salt Solution (hereinafter, “HBSS”) buffer (with Ca^2+ and Mg^2+, obtained from Corning). Then, the cells were resuspended in HBSS (obtained from Corning) to a final cell density of 3×10^6 cells/ml. […]
Then, the cells were transferred to FiltrEX™ 96 Well Filter Plates with 0.66 mm Thick Glass Fiber Filter (available from Corning Life Sciences, Cat. No. 3511) and a vacuum was applied. […] The cell lysis was then subjected to the appropriate protein analysis and/or fluorescence analysis to characterize the activity of Organic Anion-Transporting Polypeptide 1B1.

Compound	uptake activity / transport compared to OATP1B1*1a cells (in words) (OATP1B1*15)	Uptake Activity OATP1B1 [1]	Uptake Ratio [1]
C[C@]12CC[C@@H]3c4ccc(O)cc4CC[C@H]3[C@@H]1CC[C@@H]2O[C@@H]1O[C@H](C(=O)O)[C@@H](O)[C@H](O)[C@H]1O [E17βG]	Significantly impaired transport	2.19 pmol/mg/min	
fluorescein methotrexate [FMTX]	Significantly impaired transport	0.46 pmol/mg/min	6.8
